In US5063243A, “Derivative of caffeic acid and pharmaceutical composition containing the same” (Suntory, Ltd., priority 1988, dated 1991):

Key:
Type in all cases: biochemical
12-lipoxygenase [1] = target: T1, 12-lipoxygenase (Rattus norvegicus, UniProt F1LQ70); assay: 12-lipoxygenase inhibitory activity, Method 2 (ultrasonified rat platelet enzyme solution, 12-HETE production); conditions: 5 min, sample compound 1 μM, arachidonic acid 4.3 μM, 5 minutes at 37° C., control without sample compound = 100%, read-out: production index of 12-HETE, Method 2 (%)
T1 construct: Washed platelet was prepared in the usual way; from tissue; host or cells: rat blood platelets (Method 1: washed platelets; Method 2: frozen, thawed and ultrasonified platelets; Method 3: platelet soluble fraction after freeze-thaw and centrifugation)
T1 sequence (F1LQ70 1-663): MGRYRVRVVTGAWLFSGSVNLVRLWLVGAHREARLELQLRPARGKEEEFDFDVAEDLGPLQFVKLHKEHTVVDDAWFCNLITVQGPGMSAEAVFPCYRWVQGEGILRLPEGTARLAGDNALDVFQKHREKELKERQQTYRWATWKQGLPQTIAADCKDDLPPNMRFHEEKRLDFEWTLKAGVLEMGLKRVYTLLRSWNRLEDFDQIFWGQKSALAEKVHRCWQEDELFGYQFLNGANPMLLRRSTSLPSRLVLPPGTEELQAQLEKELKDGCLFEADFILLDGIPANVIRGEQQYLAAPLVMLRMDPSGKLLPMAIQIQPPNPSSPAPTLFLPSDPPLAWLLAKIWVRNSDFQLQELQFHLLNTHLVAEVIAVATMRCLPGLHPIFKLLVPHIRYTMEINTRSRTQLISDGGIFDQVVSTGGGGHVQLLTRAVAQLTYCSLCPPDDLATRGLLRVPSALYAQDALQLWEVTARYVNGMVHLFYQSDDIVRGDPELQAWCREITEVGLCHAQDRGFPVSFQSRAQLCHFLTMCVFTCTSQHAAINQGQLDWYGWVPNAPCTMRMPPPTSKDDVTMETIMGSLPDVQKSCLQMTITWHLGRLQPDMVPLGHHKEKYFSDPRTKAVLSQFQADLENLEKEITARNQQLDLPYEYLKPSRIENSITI
Protocol: The 12-lipoxygenase inhibitory activity of the compounds of the present invention was measured by conducting the three types of pharmacological tests described below. Citrated blood was collected from the heart of a rat and platelet-rich plasma was prepared in the usual way. The plasma was washed twice with isotonic buffer solution (A) [134 mM NaCl, 5 mM D-glucose, 1 mM EDTA, 1 mM EGTA, 15 mM Tris-HCl (pH=7.4)], frozen and stored at -80° C. It was thawed before use, ultrasonified in ice water and used as the enzyme solution. To the isotonic buffer solution (A) were added 1 mM GSH, the sample compound (final concentration: 1 μM) and the enzyme solution (300 to 500 μg protein) and the mixture was pre-incubated for 5 minutes at 37° C.; then [^14 C]arachidonic acid (0.05 μCi) (final concentration: 4.3 μM) was further added and reacted for 5 minutes. […] The reduction in 12-HETE production was used as the index of 12-lipoxygenase inhibitory activity.

12-lipoxygenase [2] = target: T1, 12-lipoxygenase; assay: 12-lipoxygenase inhibitory activity, Method 3 (rat platelet soluble fraction, 12-HETE production); conditions: 5 min, sample compound 10 μM, arachidonic acid 40 μM, 5 minutes at 37° C., control without sample compound = 100%, read-out: production index of 12-HETE, Method 3 (%)
Protocol: (§1) The 12-lipoxygenase inhibitory activity of the compounds of the present invention was measured by conducting the three types of pharmacological tests described below.
The platelet-rich plasma obtained in the same way as described in Method 2 was washed successively with isotonic buffer solution (A) and isotonic buffer solution (B) [134 mM NaCl, 5 mM D-glucose, 0.1 mM DETA, 0.1 mM EGTA, 15 mM Tris-HCl (pH=7.4)] in that order, and suspended in a hypotonic buffer solution (C) [25 mM Tris-HCl (pH=7.7)]. The suspension was treated by a "freeze-thaw" procedure three times and centrifuged at 10500× g for 60 minutes. An aliquot of the supernatant (platelet soluble fraction) was used as the enzyme solution. To the hypotonic buffer solution (C) were added 1 mM GSH, [^14 C]arachidonic acid (0.025 μCi) (final concentration: 40 μM), the sample compound (final concentration: 10 μM) and the enzyme solution (50 μg protein) and the mixture was reacted for 5 minutes at 37° C. The index of 12-lipoxygenase inhibitory activity was obtained in the same way as described in Method 2.
(§2) The production indexes of 12-HETE under the inhibitory influence of the compounds of the present invention are shown in Table 2, where the production amount of the control experiment (in the absence of the sample compound) is 100%.

12-lipoxygenase [3] = target: T1, 12-lipoxygenase; assay: 12-lipoxygenase inhibitory activity, Method 1 (washed rat platelet, 12-HETE production); conditions: sample compound 10 μM, 3 to 5 minutes at 37° C., control without sample compound = 100%, read-out: production index of 12-HETE, Method 1 (%)
Protocol: as §1
Citrated blood was collected from the abdominal aorta of a rat. Washed platelet was prepared in the usual way, diluted with phosphate buffer (pH=8.0) containing 0.45% NaCl and used as the enzyme solution. To the solution were added the sample compound (10 μM), [^14 C]arachidonicacid (0.2 μCi) and arachidonic acid (3 μg) and the mixture was reacted for 3 to 5 minutes at 37° C. The reaction mixture was developed by thin layer chromatography and 12-HETE was identified by a radio chromato scanner. The reduction in 12-HETE production which resulted was used as the index of 12-lipoxygenase inhibitory activity.
as §2

Structure (SMILES) | activity at 1 µM (12-lipoxygenase [1]) | activity at 10 µM (12-lipoxygenase [2]) | activity at 10 µM (12-lipoxygenase [3])
N#CC(=Cc1ccc(O)c(O)c1)C(=O)OCCCc1ccccc1 [compound 10, Phenylpropyl 2-cyano-3-(3,4-dihydroxyphenyl)-2-propenoate] | 12.1% |  | 
N#CC(=Cc1ccc(O)c(O)c1)C(=O)OCCOc1ccccc1 [compound 18, 2-Phenoxyethyl 2-cyano-3-(3,4-dihydroxyphenyl)-2-propenoate] | 8.5% |  | 
N#CC(=Cc1ccc(O)c(O)c1)C(=O)OCCCCc1ccccc1 [compound 11, Phenylbutyl 2-cyano-3-(3,4-dihydroxyphenyl)-2-propenoate] | 14.2% |  | 
COc1ccccc1CCOC(=O)C(C#N)=Cc1ccc(O)c(O)c1 [compound 14, 2-Methoxyphenethyl 2-cyano-3-(3,4-dihydroxyphenyl)-2-propenoate] |  | 19.1% | 
COC(=O)C(C#N)=Cc1ccc(O)c(O)c1 [Compound No. 5, methyl 2-cyano-3-(3,4-dihydroxyphenyl)-2-propenoate] |  |  | 36%
COc1ccc(CCOC(=O)C(C#N)=Cc2ccc(O)c(O)c2)cc1 [compound 13, 4-Methoxyphenethyl 2-cyano-3-(3,4-dihydroxyphenyl)-2-propenoate] |  | 19.5% | 
N#CC(=Cc1ccc(O)c(O)c1)C(=O)OCCc1cccs1 [compound 15, 2-(2-Thienyl)ethyl 2-cyano-3-(3,4-dihydroxyphenyl)-2-propenoate] | 8.7% |  | 
N#CC(=Cc1ccc(O)c(O)c1)C(=O)OCCc1ccccc1 [Compound No. 9, Phenethyl 2-cyano-3-(3,4-dihydroxyphenyl)-2-propenoate] | 10% | 25.1% | 
N#CC(=Cc1ccc(O)c(O)c1)C(=O)OCC=Cc1ccccc1 [compound 17, 3-Phenyl-2-propenyl 2-cyano-3-(3,4-dihydroxyphenyl)-2-propenoate] | 13.2% |  | 
CC(C)OC(=O)C(C#N)=Cc1ccc(O)c(O)c1 [Compound No. 6, isopropyl 2-cyano-3-(3,4-dihydroxyphenyl)-2-propenoate] |  |  | 31.4%
O=c1cc(-c2ccccc2)oc2cc(O)c(O)c(O)c12 [Baicalein, baicalein, reference compound] | 9.8% | 22.7% | 27%
CCOC(=O)C(C#N)=Cc1ccc(O)c(O)c1 [Compound No. 1, Ethyl 2-cyano-3-(3,4-dihydroxyphenyl)-2-propenoate] |  |  | 38.1%
